From patent US20090252778A1, “METHODS AND DEVICES FOR REDUCING TISSUE DAMAGE AFTER ISCHEMIC INJURY” (INNOVATIONAL HOLDINGS LLC., priority 2006, published 2009)

Test: in vitro cumulative release from dual drug stent
Type: physicochemical
Conditions: insulin and Pimecrolimus eluting stent
Procedure: FIG. 6a is a graph showing the in vitro cumulative release of insulin over time from a dual drug stent. FIG. 6b is a graph showing the in vitro cumulative release of pimecrolimus over time from a dual drug stent. A stent for eluting insulin and Pimecrolimus was made substantially according to the description in A above. The stent was loaded with a base region, an insulin drug region, and a Pimecrolimus cap region. The base contained PLGA and/or PEVA; the drug contained insulin 250 μg total drug load (TDL) and PLGA; and the cap contained PEVA, PLGA/PLA-PCL and Pimecrolimus 300 μg TDL, and 6 deposits of PLGA/PLA-PCL. FIGS. 6A and 6B show the release profile of the insulin and Pimecrolimus eluting stent, respectively, over time. As shown in FIG. 6A at least about 50% of the insulin is released in the first 48 hours.

| Compound | release profile of Pimecrolimus (in vitro cumulative release) (Pimecrolimus 300 μg TDL in cap region, FIG. 6B) | insulin released (in vitro cumulative release) (insulin 250 μg TDL in PLGA, in the first 48 hours, FIG. 6A) |
| --- | --- | --- |
| CC[C@@H]1/C=C(\C)C[C@H](C)C[C@H](OC)[C@H]2O[C@@](O)(C(=O)C(=O)N3CCCC[C@H]3C(=O)O[C@H](/C(C)=C/[C@@H]3CC[C@H](Cl)[C@H](OC)C3)[C@H](C)[C@@H](O)CC1=O)[C@H](C)C[C@@H]2OC [Pimecrolimus] | high initial release rate followed by a slower prolonged release | – |
| insulin | – | at least 50% |
